From patent US5173509A (The United States of America as represented by the …, priority 1990, dated 1992)
Entries after “also recorded” stand apart in the source; their conditions may differ.

What was measured:
[1] = cited from earlier work
[2] = when used at the levels herein taught; cited from earlier work
[3] = test system: TGF-B cell surface receptors; settings: cited from earlier work
[4] = test system: EGF cell surface receptors; settings: cited from earlier work
calvaria = assay: Bone resorption assay (calcium released into media by mouse calvaria); assay type: cell-based, mice (In:GP(s)), three to six day old; settings: for calcium in the media: three days
Description: Glutamine was obtained from Biofluids (Catalog No. 300). […] Heparin was obtained from Organon (1000 units/cc). […] Above factors were stored at -20 degrees centigrade.
Three to six day old mice (In:GP(s)) were obtained from the small animal section of the Veterinarian Resources Branch of the National Institutes of Health. Calvaria were harvested and washed in 500 cc of Hank's Balanced Salt solution without calcium or magnesium (Catalog No. 320, Biofluids) with a stirring bar for one to one and a half hours. The calvaria were placed in 2cc of study media in 16 × 125 mm STYRENE tissue culture tubes (Catalog No. R605, Elkay Products, Inc.). Study media was made by mixing equal volumes of Media A and Media B and then adding the appropriate growth factors. […] The calcium in the media was determined after three days with an ABBOTT Bichromatic Analyzer 100.

[5] = test system: PDGF cell surface receptors; settings: cited from earlier work
[6] = test system: patient having symptomatic hypercalcemia; settings: cited from earlier work
[7] = Plasma half life / plasma level; assay type: in vivo, human; settings: after attainment of an effective plasma level
Description: The term "plasma" as used herein refers to whole blood plasma having cell bodies spun out by centrifugation, or similar method. […] Chromatog., Vol. 8, pp. 1685-1696 (1985), hereby incorporated by reference.

Compound: Cc1ccc(C(=O)Nc2ccc(S(=O)(=O)O)c3cc(S(=O)(=O)O)cc(S(=O)(=O)O)c23)cc1NC(=O)c1cccc(NC(=O)Nc2cccc(C(=O)Nc3cc(C(=O)Nc4ccc(S(=O)(=O)O)c5cc(S(=O)(=O)O)cc(S(=O)(=O)O)c45)ccc3C)c2)c1 [suramin, 8,8'-[carbonylbis[imino-3,1-phenylenecarbonylimino(4-methyl-3,1-phenylene)carbonylimino]]bis-1,3,5-naphthalenetrisulfonic acid]
- plasma suramin level ([1]; 350 mg/m^2 /d continuous infusion for about two weeks, 20160 min): 250 to 300 µg/mL
- half life in plasma (in words) ([1]; human plasma): long plasma half life
- toxicity (in words) [2]: relatively low toxicity
- blocking of TGF-B to cell surface receptors [3]: has been shown to block
- blocking of EGF to cell surface receptors [4]: has been shown to block
- calcium in the media (calvaria; Example 1, FIG. 1A, calvaria plus suramin 200 mcg/ml, mean +/- SEM, n=6, media with calvaria 9.88 +/- 1.49, P=0.0002): 7.05 ± 0.32 mg/dL
- calcium in the media (calvaria; Example 2, FIG. 1B, calvaria plus PTH (200 ng/ml) plus suramin 200 mcg/ml, n=6, vs. calvaria plus PTH P=0.0045): 8.33 ± 0.57 mg/dL
- calcium in the media (calvaria; Example 3, FIG. 1C, calvaria plus PTH-rp (200 ng/ml) plus suramin 200 mcg/ml, n=10, vs. calvaria plus PTH-rp P=0.0001): 7.26 ± 0.18 mg/dL
- inhibition of bone resorption (conclusion in words) (calvaria; based on Examples 1-3): possesses properties which allow it to inhibit bone resorption
- blocking of PDGF to cell surface receptors [5]: has been shown to block
- duration of normocalcemia after suramin treatment ([6]; one patient, cancer metastatic to bone): remained normocalcemic for three months; also recorded: normalized for three months
- normalization of hypercalcemia ([6]; suramin 350 mg/m^2 /d continuous infusion about two weeks, calcium levels before 14 to 15 mg/dL): became normocalcemic within about two weeks
- time for which effective plasma levels are maintained without readministering [7]: 6-8 weeks

Compound: calcitonin
- response of hypercalcemia to calcitonin ([6]; same patient, before suramin): becoming refractory to treatment with calcitonin

Compound: Parathyroid Hormone - related protein (PTH-rp): Human PTH-related protein (PTH-RP) (1-34) (Catalog No. 6151; Peninsular Laboratories Incorporated)
- calcium in the media (calvaria; Example 3, FIG. 1C, calvaria plus PTH-rp 200 ng/ml, without suramin, n=10, media with calvaria 9.1 +/- 0.46, P=0.0015): 11.3 ± 0.34 mg/dL
